From patent publication US7968595B2, “Substituted 4-aryl-chromene as activator of caspases and inducer of apoptosis and as antivascular agent and the use thereof” (Cytovia, Inc., priority 2006, dated 2011) come the findings set out here.

One experiment concerns H1299. Nature of the experiment: Caspase activation assay in H1299 cells. The class given is cell-based. Conditions: Homo sapiens, NCI-H1299, 24 h incubation, read-out: Caspase activation potency EC50 H1299. The protocol: (§1) Human breast cancer cell lines T-47D and ZR-75-1, human colon cancer cell line DLD-1 and human non-small cell lung cancer cell line H1299 were grown according to media component mixtures designated by American Type Culture Collection+10% FCS (Invitrogen Corporation), in a 5% CO2−95% humidity incubator at 37° C. T-47D and ZR-75-1 cells were maintained at a cell density between 30 and 80% confluency at a cell density of 0.1 to 0.6×10^6 cells/mL. Cells were harvested at 600×g and resuspended at 0.65×10^6 cells/mL into appropriate media+10% FCS. An aliquot of […] of cells was added to a well of a 96-well microtiter plate containing 5 μl of a 10% DMSO in RPMI-1640 media solution containing about 0.16 to 10 μM of 2,7,8-triamino-4-(3-bromo-4,5-dimethoxy-phenyl)-3-cyano-4H-chromene (1) or other test compounds (0.016 to 1 μM final). An aliquot of 45 μl of cells was added to a well of a 96-well microtiter plate containing 5 μl of a 10% DMSO in RPMI-1640 media solution without test compound as the control sample. The samples were mixed by agitation and then incubated at 37° C. for 24 h in a 5% CO2−95% humidity incubator. After incubation, the samples were removed from the incubator and 50 μl of a solution containing 20 μM of N-(Ac-DEVD)-N′-ethoxycarbonyl-R110 (SEQ ID No:1) fluorogenic substrate (Cytovia, Inc.; U.S. Pat. No. 6,335,429), 20% sucrose (Sigma), 20 mM DTT (Sigma), 200 mM NaCl (Sigma), 40 mM Na PIPES buffer pH 7.2 (Sigma), and 500 μg/ml lysolecithin (Calbiochem) was added. The samples were mixed by agitation and incubated at room temperature. Using a fluorescent plate reader (Model 1420 Wallac Instruments), an initial reading (T=0) was made about 1-2 min after addition of the substrate solution, employing excitation at 485 nm and emission at 530 nm, to determine the background fluorescence of the control sample. After the 3 h incubation, the samples were read for fluorescence as above (T=3 h).
(§2) The Relative Fluorescence Unit values (RFU) were used to calculate the sample readings as follows: RFU(T=3h)−Control RFU(T=0)=Net RFU(T=3h)
(§3) The activity of caspase cascade activation was determined by the ratio of the net RFU value for 2,7,8-triamino-4-(3-bromo-4,5-dimethoxy-phenyl)-3-cyano-4H-chromene or other test compound to that of control samples. The EC50 (nM) was determined by a sigmoidal dose-response calculation (Prism 2.0, GraphPad Software Inc.).

The subject of a further experiment is T-47D. Nature of the experiment: Caspase activation assay in T-47D cells. The format is cell-based. Conditions: Homo sapiens; T47D cells, 24 h incubation; read-out: Caspase activation potency EC50 T47D. The protocol: as §1, §2, §3
Experiment [1] has as its system MX1 human breast cancer tumors. The experiment is described as follows: In vivo antitumor activity in MX-1 model, combination with cisplatin and doxorubicin. Further details: species or system mice. The protocol:
MX1 human breast cancer tumors were obtained from the NCI-FCRDC and maintained as tumors in nude mice. Tumor bits were implanted with a trocar into the right mammary area of female nu/nu mice and allowed to grow to an average size of 200-250 mg, about 12 days after being implanted. Animals were randomized and assigned to study groups of 8-10 animals/group. Body weight were determined and tumor size were measured by calipers and converted to volume by the standard formula of Vol=L×W^2/2. Compound 1R was formulated in 7% PEG400/9% Tween80/84% D5W and administered IV via the tail vein at the indicated days and doses. Day 1 of the study was the first day of treatment. Survival time was the number of days for the tumor to reach 1000 mg or death, whichever occurred earliest. Median survival is the median for the group.
Mice implanted with MX1 human breast cancer tumors were treated with compound 1R as described in EXAMPLE 11. Cisplatin was administered IP whereas doxorubicin was administered IV at the indicated doses.

In a further experiment the test system is solid tumor cells. Nature of the experiment: Caspase cascade activation and induction of apoptosis, overall statement. The format is cell-based, human. The conditions noted are these: summary of Table I. The protocol:
as §1, with “After incubation, the samples were removed from the incubator and 50 μl of a solution containing 20 μM of N-(Ac-DEVD)-N′-ethoxycarbonyl-R110 (SEQ ID No:1) fluorogenic substrate (Cytovia, Inc.; U.S. Pat. No. 6,335,429), 20% sucrose (Sigma), 20 mM DTT (Sigma), 200 mM NaCl (Sigma), 40 mM Na PIPES buffer pH 7.2 (Sigma), and 500 μg/ml lysolecithin (Calbiochem) was added. The samples were mixed by agitation and incubated at room temperature.” left out
as §3

The next experiment concerns DLD-1. Nature of the experiment: Caspase activation assay in DLD-1 cells. The class given is cell-based. The conditions noted are these: Homo sapiens, 24 h incubation, read-out: Caspase activation potency EC50 DLD-1. The protocol: as §1, with “After incubation, the samples were removed from the incubator and 50 μl of a solution containing 20 μM of N-(Ac-DEVD)-N′-ethoxycarbonyl-R110 (SEQ ID No:1) fluorogenic substrate (Cytovia, Inc.; U.S. Pat. No. 6,335,429), 20% sucrose (Sigma), 20 mM DTT (Sigma), 200 mM NaCl (Sigma), 40 mM Na PIPES buffer pH 7.2 (Sigma), and 500 μg/ml lysolecithin (Calbiochem) was added. The samples were mixed by agitation and incubated at room temperature.” left out
as §2, §3

The next experiment concerns ZR-75-1. The experiment is described as follows: Caspase activation assay in ZR-75-1 cells. The format is cell-based. Conditions: Homo sapiens, ZR751 cells, 24 h incubation, read-out: Caspase activation potency EC50 ZR751. The protocol: as §1, with “After incubation, the samples were removed from the incubator and 50 μl of a solution containing 20 μM of N-(Ac-DEVD)-N′-ethoxycarbonyl-R110 (SEQ ID No:1) fluorogenic substrate (Cytovia, Inc.; U.S. Pat. No. 6,335,429), 20% sucrose (Sigma), 20 mM DTT (Sigma), 200 mM NaCl (Sigma), 40 mM Na PIPES buffer pH 7.2 (Sigma), and 500 μg/ml lysolecithin (Calbiochem) was added. The samples were mixed by agitation and incubated at room temperature.” left out
as §2, §3

The mark [2] stands for this setting: cisplatin 2 mg/kg, day 2, 9, IP.
Where [3] appears, read: doxorubicin 2 mg/kg, day 2, 9, IV.

For the compound `COc1cc(C2C(C#N)=C(N)Oc3c2ccc(NC(=O)CN(C)C)c3N)cc(Br)c1OC` (stereo not shown) [A], the EC50 turned out to be 3.34 µM in the experiment with H1299 and 2.54 µM in the experiment on T-47D.

Turning to `N.N.[Cl][Pt][Cl]` [Cisplatin, reference compound], the Median survival in experiment [1] (setting [2]) worked out at 27 days; in experiment [1] (cisplatin 2 mg/kg, day 2, IP), 11 days. In addition, the “Number of tumor free mice at day 91” value in experiment [1] (setting [2]) is 1 of 7; in experiment [1] (cisplatin 2 mg/kg, day 2, IP), 0 of 9.

`COc1cc(C2C(C#N)=C(N)Oc3c2ccc(NC(=O)CN)c3N)cc(Br)c1OC` (stereo not shown) [C]: the EC50 in the experiment with H1299 came out at 0.273 µM; in the experiment on T-47D, 0.16 µM.

Consider `COc1cccc2c1C(=O)c1c(O)c3c(c(O)c1C2=O)C[C@@](O)(C(=O)CO)C[C@@H]3O[C@H]1C[C@H](N)[C@H](O)[C@H](C)O1` [Doxorubicin, reference compound], for which, in experiment [1] (setting [3]), the Median survival came out at 11 days and the “Number of tumor free mice at day 91” value is 0 of 9.

Take `COc1cc([C@H]2C(C#N)=C(N)Oc3c2ccc(NC(=O)[C@H](C)N)c3N)cc(Br)c1OC` [Compound 4, (2S)-2-Amino-N—((R)-2,8-diamino-4-(3-bromo-4,5-dimethoxyphenyl)-3-cyano-4H-chromen-7-yl)propanamide]: in the experiment on T-47D, the concentration for a half-maximal effect (EC50) was determined as 0.052 µM. In addition, in the experiment with solid tumor cells, the “Caspase cascade activator and inducer of apoptosis (in words)” value was “potent caspase cascade activator and inducer of apoptosis”.

`COc1cc(C2C(C#N)=C(N)Oc3c2ccc(NC(=O)CCCN)c3N)cc(Br)c1OC` (stereo not shown) [B]: the EC50 with H1299 is 5.78 µM; with T-47D, 5.5 µM.

Regarding `COc1cc(C2C(C#N)=C(N)Oc3c2ccc(NC(=O)[C@H](N)CCCCN)c3N)cc(Br)c1OC` (stereo partly shown) [G], the EC50 came out at 3.75 µM in the experiment on H1299 and 1.42 µM in the experiment on T-47D.

Take `COc1cc([C@H]2C(C#N)=C(N)Oc3c2ccc(NC(=O)CN)c3N)cc(Br)c1OC` [Compound 6, 2-Amino-N—((R)-2,8-diamino-4-(3-bromo-4,5-dimethoxyphenyl)-3-cyano-4H-chromen-7-yl)acetamide]: in the experiment on T-47D, the EC50 turned out to be 0.06 µM.

Turning to `COc1cc(C2C(C#N)=C(N)Oc3c2ccc(NC(=O)C[N+](C)(C)C)c3N)cc(Br)c1OC` (stereo not shown) [D], the EC50 with H1299 and in the experiment on T-47D was more than 10 µM each time.

For `COc1cc(C2C(C#N)=C(N)Oc3c2ccc(NC(=O)C(N)COC(C)=O)c3N)cc(Br)c1OC` (stereo not shown) [F], the EC50 was 5.67 µM in the experiment on H1299 and 4.12 µM in the experiment with T-47D.

On to `COc1cc(C2C(C#N)=C(N)Oc3c2ccc(N)c3N)cc(Br)c1OC` (racemic) [Compound 1, 2,7,8-Triamino-4-(3-bromo-4,5-dimethoxy-phenyl)-3-cyano-4H-chromene], for which the EC50 amounted to 0.078 µM in the experiment on DLD-1, 0.035 µM in the experiment with ZR-75-1, 0.12 µM in the experiment with H1299 and 0.042 µM with T-47D.

With `COc1cc([C@H]2C(C#N)=C(N)Oc3c2ccc(NC(=O)CNC(=O)OCC2c4ccccc4-c4ccccc42)c3N)cc(Br)c1OC` [Compound 5, (9H-fluoren-9-yl)methyl((R)-2,8-diamino-4-(3-bromo-4,5-dimethoxyphenyl)-3-cyano-4H-chromen-7-ylcarbamoyl)methylcarbamate], the 50% effective concentration (EC50) with T-47D came to 2.44 µM.

Regarding `COc1cc([C@@H]2C(C#N)=C(N)Oc3c2ccc(N)c3N)cc(Br)c1OC` [Compound 1S, S(+)-2,7,8-triamino-4-(3-bromo-4,5-dimethoxy-phenyl)-3-cyano-4H-chromene], the EC50 with DLD-1 is 4.57 µM; in the experiment on ZR-75-1, 2.01 µM; in the experiment with H1299, 3.21 µM; with T-47D it was 2.49 µM. The “Caspase cascade activator and inducer of apoptosis (in words)” value with solid tumor cells was “inactive isomer”.

Regarding `COc1cc(C2C(C#N)=C(N)Oc3c2ccc(NC(=O)C2CCCN2)c3N)cc(Br)c1OC` (stereo not shown) [Compound E], the concentration giving a half-maximal response (EC50) in the experiment on H1299 turned out to be 5.33 µM; with T-47D, 3.9 µM.

For the compound `COc1cc([C@H]2C(C#N)=C(N)Oc3c2ccc(NC(=O)[C@H](C)NC(=O)OCC2c4ccccc4-c4ccccc42)c3N)cc(Br)c1OC` [Compound 3, (9H-fluoren-9-yl)methyl(S)-1-((R)-2,8-diamino-3-cyano-4-(3-bromo-4,5-dimethoxyphenyl)-4H-chromen-7-ylcarbamoyl)ethylcarbamate], the EC50 in the experiment with T-47D worked out at 2.88 µM.

In general, EC50 refers to the concentration needed to bring the measured effect to its halfway point.
